pEC50: −log10 of the molar value. Read-outs that look alike come from different tables or passages of the source.
Biological target: T1, human α7 nAChR (Homo sapiens, UniProt P36544)
T1 construct: host or cells: HEK
Test: Automated patch-clamp electrophysiology functional assay (Assay A)
Format: cell-based
Settings: HEK cell line stably expressing human RIC-3 and human α7, IonFlux HT whole-cell population patch, with or without 40 μM acetylcholine
Experimental: The α7 nAChR positive allosteric modulator (PAM) activity of the present compounds may be tested using assays known in the art. The α7 nAChR PAMs described herein have activities in an automated patch-clamp electrophysiology functional assay as described in the examples. The assay was performed using the IonFlux HT in a whole-cell, population patch configuration. See Golden et al. Assay Drug Dev. Technol. (2011) 9:608-619. The compounds were assessed for their ability to modulate the function of the human α7 nAChR stably expressed in a HEK cell line both in the presence, and in the absence of the natural α7 agonist acetylcholine. By performing a series of such measurements at different concentrations, the effective concentration of the α7 nAChR PAMs (EC50) was determined. See Spencer et al. Assay Drug Dev. Technol. (2012) 10:313-324.
Direct activation of α7 (agonism), and potentiation of acetylcholine-evoked α7 currents was determined as follows:
Automated patch-clamp electrophysiology was performed using the IonFlux HT (Fluxion Biosciences Inc., San Francisco, CA) in the whole-cell, population patch configuration. Test compounds were assessed for their ability to modulate the function of the α7 nicotinic acetylcholine receptor both in the presence, and in the absence of the natural α7 agonist acetylcholine. A HEK cell line stably expressing both human RIC-3 and human α7 (PrecisION hnAChR α7/RIC-3, Eurofins Pharma, St. Charles, MO) was cultured in 175 cm^2 triple-layer tissue culture flasks to no more than 90% confluency in DMEM/F-12 growth media supplemented with 10% heat-inactivated fetal bovine serum, 1% non-essential amino acids, 0.625 μg/mL Puromycin, and 400 μg/mL Geneticin. Immediately prior to assay, cells were detached by first aspirating growth media, rinsing with Dulbecco's phosphate buffered saline, and then adding 10 mL of Accutase (Innovative Cell Technologies, San Diego, CA) to the flask and then incubating at 37° C. for 5 minutes. Detached cells were then recovered by the addition of 40 mL of CHO-serum-free media supplemented with 25 mM HEPES, and rocked gently in a 50 mL conical tube for 20 minutes prior to patch-clamp assay. After recovery, cells were pelleted by centrifugation at 1,000 RPM for 1 minute in a compact bench top centrifuge; recovery media was aspirated and cells were resuspended in external recording solution (150 mM NaCl, 5 mM KCl, 2 mM CaCl2, 1 mM MgCl2, 10 mM HEPES, 12 mM dextrose) to a density of 5.0×10^6 cells/mL. The cell suspension was added to the cell inlet wells on an IonFlux HT population patch plate which had previously been rinsed and primed with deionized H2O. Test compounds were serially diluted in DMSO and then resuspended to the final test concentration in external recording solution, with, or without 40 μM acetylcholine added to the external recording solution; test compounds were then transferred to the IonFlux HT population patch plate. Internal recording solution (110 mM TrisPO4, 28 mM TrisBase, 0.1 mM CaCl2, 2 mM MgCl2, 11 mM EGTA, 4 mM MgATP) was added to the internal recording solution inlet wells on the IonFlux HT patch plate previously loaded with cells and test compounds, and the plate loaded into the IonFlux HT instrument. A protocol was executed on the IonFlux HT to trap the cells, break into the cells, and establish the whole-cell recording configuration; cells were voltage-clamped at a holding potential of −60 mV for the duration of the experiment, all experiments were conducted at room temperature, and the IonFlux HT injection pressure was 8 psi for solution applications. Upon establishing the whole-cell configuration, external recording solution was perfused into the recording chambers for 120 seconds and then 40 μM acetylcholine was applied for 1 second and immediately washed off with external recording solution for 60 seconds. […]

T1 sequence (P36544 23-502): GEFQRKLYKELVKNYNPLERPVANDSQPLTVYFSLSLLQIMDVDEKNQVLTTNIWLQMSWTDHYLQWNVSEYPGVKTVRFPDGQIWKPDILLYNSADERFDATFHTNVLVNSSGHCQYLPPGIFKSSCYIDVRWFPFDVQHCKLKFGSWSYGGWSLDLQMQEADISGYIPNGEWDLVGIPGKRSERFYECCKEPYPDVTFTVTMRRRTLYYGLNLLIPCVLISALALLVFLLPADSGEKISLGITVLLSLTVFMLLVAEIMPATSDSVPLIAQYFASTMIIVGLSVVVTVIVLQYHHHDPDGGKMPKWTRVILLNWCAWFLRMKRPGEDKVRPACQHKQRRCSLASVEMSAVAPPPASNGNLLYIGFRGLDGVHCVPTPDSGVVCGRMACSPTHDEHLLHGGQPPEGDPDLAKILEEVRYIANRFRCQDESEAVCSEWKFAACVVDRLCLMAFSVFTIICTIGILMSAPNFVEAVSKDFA

Structure (SMILES) | pEC50 (read-out: α7 nAChR EC50) | pEC50 (read-out: α7 nAChR Potency)
NS(=O)(=O)N1CCC2(CC1)C(CSc1nnnn1-c1ccccc1)C2(F)F (single isomer, unassigned) [Example A61, 1,1-difluoro-2-{[(1-phenyl-1H-tetrazol-5-yl)sulfanyl]methyl}-6-azaspiro[2.5]octane-6-sulfonamide] | 5.89 | 5.30 to 6.30
NS(=O)(=O)N1CCC2(CC1)C(COc1cccc(OCC(F)(F)F)n1)C2(F)F (single isomer, unassigned) [Example A41, 1,1-difluoro-2-({[6-(2,2,2-trifluoroethoxy)pyridin-2-yl]oxy}methyl)-6-azaspiro[2.5]octane-6-sulfonamide] |  | 6.30 to 7.00
COc1ccc(OC[C@@H]2CC23CCN(S(N)(=O)=O)CC3)c(OC)n1 [Example A1, (1R)-1-{[(2,6-dimethoxypyridin-3-yl)oxy]methyl}-6-azaspiro[2.5]octane-6-sulfonamide] | 5.21 | 4.30 to 5.30
NS(=O)(=O)N1CCC2(CC1)C(COc1cccc(OC(F)F)c1)C2(F)F (single isomer, unassigned) [Example A29, 2-{[3-(difluoromethoxy)phenoxy]methyl}-1,1-difluoro-6-azaspiro[2.5]octane-6-sulfonamide] | 6.51 | 6.30 to 7.00
NS(=O)(=O)N1CCC2(CC1)C(COc1noc(-c3ccccc3)n1)C2(F)F (single isomer, unassigned) [Example A21, 1,1-difluoro-2-{[(5-phenyl-1,2,4-oxadiazol-3-yl)oxy]methyl}-6-azaspiro[2.5]octane-6-sulfonamide] | 5.96 | 5.30 to 6.30
Cn1nc(C(F)(F)F)cc1OCC1C(F)(F)C12CCN(S(N)(=O)=O)CC2 (single isomer, unassigned) [Example A12, 1,1-difluoro-2-({[1-methyl-3-(trifluoromethyl)-1H-pyrazol-5-yl]oxy}methyl)-6-azaspiro[2.5]octane-6-sulfonamide] | 5.38 | 5.30 to 6.30
Cc1cccc(OC[C@@H]2CC23CCN(S(N)(=O)=O)CC3)n1 [Example A48, (1R)-1-{[(6-methylpyridin-2-yl)oxy]methyl}-6-azaspiro[2.5]octane-6-sulfonamide] | 5.77 | 5.30 to 6.30
NS(=O)(=O)N1CCC2(CC1)C(CCc1ccc(F)cc1C(F)(F)F)C2(F)F (stereo not drawn) [Example 18, 1,1-Difluoro-2-{2-[4-fluoro-2-(trifluoromethyl)phenyl]ethyl}-6-azaspiro[2.5]octane-6-sulfonamide] |  | 4.30 to 5.30
CC(F)(F)c1cccc(OC[C@@H]2CC23CCN(S(N)(=O)=O)CC3)n1 [Example A56, (1R)-1-({[6-(1,1-difluoroethyl)pyridin-2-yl]oxy}methyl)-6-azaspiro[2.5]octane-6-sulfonamide] | 6.13 | 5.30 to 6.30
NS(=O)(=O)N1CCC2(CC1)CC2COc1ccnc(OC(F)F)c1 (stereo not drawn) [Example 1, 1-({[2-(Difluoromethoxy)pyridin-4-yl]oxy}methyl)-6-azaspiro[2.5]octane-6-sulfonamide] | 6.14 | 5.30 to 6.30
NS(=O)(=O)N1CCC2(CC1)C(/C=C/c1ccc(F)cc1C(F)(F)F)C2(F)F (stereo not drawn) [Example 19, 1,1-Difluoro-2-{(E)-2-[4-fluoro-2-(trifluoromethyl)phenyl]ethenyl}-6-azaspiro[2.5]octane-6-sulfonamide] | 5.72 | 5.30 to 6.30
NS(=O)(=O)N1CCC2(CC1)C[C@H]2COc1cccc(N2CCOCC2)n1 [Example 16, (1R)-1-({[6-(Morpholin-4-yl)pyridin-2-yl]oxy}methyl)-6-azaspiro[2.5]octane-6-sulfonamide] | 7.00 | 6.30 to 7.00
NS(=O)(=O)N1CCC2(CC1)CC2CSc1ccc(C(F)(F)F)cc1 (racemic) [Example A43, 1-({[4-(trifluoromethyl)phenyl]sulfanyl}methyl)-6-azaspiro[2.5]octane-6-sulfonamide] | 5.85 | 5.30 to 6.30
NS(=O)(=O)N1CCC2(CC1)C(COc1cccc(OC(F)F)c1)C2(F)F (single isomer, unassigned) [Example A28, 2-{[3-(difluoromethoxy)phenoxy]methyl}-1,1-difluoro-6-azaspiro[2.5]octane-6-sulfonamide] | 7.43 | ≥ 7.00
NS(=O)(=O)N1CCC2(CC1)CC2COc1cccc(OCC(F)(F)F)c1 (stereo not drawn) [Example 7, 1-{[3-(2,2,2-Trifuoroethoxy)phenoxy]methyl}-6-azaspiro[2.5]octane-6-sulfonamide] | 6.48 | 6.30 to 7.00
NS(=O)(=O)N1CCC2(CC1)C(COc1cccnc1OCC(F)(F)F)C2(F)F (single isomer, unassigned) [Example A35, 1,1-difluoro-2-({[2-(2,2,2-trifluoroethoxy)pyridin-3-yl]oxy}methyl)-6-azaspiro[2.5]octane-6-sulfonamide] | 6.27 | 5.30 to 6.30
NS(=O)(=O)N1CCC2(CC1)C[C@H]2C(=O)Nc1cccc(Cl)c1 [Example B2, (1R)—N-(3-chlorophenyl)-6-sulfamoyl-6-azaspiro[2.5]octane-1-carboxamide] |  | 5.30 to 6.30
COc1cccc(OC[C@@H]2CC23CCN(S(N)(=O)=O)CC3)n1 [Example A51, (1R)-1-{[(6-methoxypyridin-2-yl)oxy]methyl}-6-azaspiro[2.5]octane-6-sulfonamide] | 6.24 | 5.30 to 6.30
COc1ccc(Cl)cc1SC[C@@H]1CC12CCN(S(N)(=O)=O)CC2 [Example 11, (1R)-1-{[(5-Chloro-2-methoxyphenyl)sulfanyl]methyl}-6-azaspiro[2.5]octane-6-sulfonamide] | 7.28 | ≥ 7.00
NS(=O)(=O)N1CCC2(CC1)C[C@H]2COc1cccc(C2CC2)n1 [Example A49] | 6.55 | 6.30 to 7.00
COc1ccc(Cl)cc1OCC1C(F)(F)C12CCN(S(N)(=O)=O)CC2 (single isomer, unassigned) [Example A3, 2-[(5-chloro-2-methoxyphenoxy)methyl]-1,1-difluoro-6-azaspiro[2.5]octane-6-sulfonamide] | 5.89 | 5.30 to 6.30
COc1ccc(Cl)cc1NC(=O)[C@@H]1CC12CCN(S(N)(=O)=O)CC2 [Example 13, (1R)—N-(5-Chloro-2-methoxyphenyl)-6-sulfamoyl-6-azaspiro[2.5]octane-1-carboxamide] | 6.70 | 6.30 to 7.00
NS(=O)(=O)N1CCC2(CC1)C(CSc1ccc(C(F)(F)F)cc1)C2(F)F (single isomer, unassigned) [Example A44, 1,1-difluoro-2-({[4-(trifluoromethyl)phenyl]sulfanyl}methyl)-6-azaspiro[2.5]octane-6-sulfonamide] | 6.82 | 6.30 to 7.00
NS(=O)(=O)N1CCC2(CC1)C[C@H]2COc1cccc(-c2ccncc2)n1 [Example A58, (1R)-1-[(2,4′-bipyridin-6-yloxy)methyl]-6-azaspiro[2.5]octane-6-sulfonamide] |  | 5.30 to 6.30
NS(=O)(=O)N1CCC2(CC1)C(COc1cccnc1OCC(F)(F)F)C2(F)F (single isomer, unassigned) [Example A36, 1,1-difluoro-2-({[2-(2,2,2-trifluoroethoxy)pyridin-3-yl]oxy}methyl)-6-azaspiro[2.5]octane-6-sulfonamide] | 5.92 | 5.30 to 6.30
NS(=O)(=O)N1CCC2(CC1)C(COc1cccc(OCC(F)(F)F)n1)C2(F)F (single isomer, unassigned) [Example A40, 1,1-difluoro-2-({[6-(2,2,2-trifluoroethoxy)pyridin-2-yl]oxy}methyl)-6-azaspiro[2.5]octane-6-sulfonamide] | 7.72 | ≥ 7.00

Source: US12331022B2, “Spiropiperidine allosteric modulators of nicotinic acetylcholine receptors” (Merck Sharp & Dohme LLC, priority 2019, dated 2025)
